Assays:
Format in all cases: cell-based
human TLR7 = target: T1, human TLR7 (Homo sapiens, UniProt Q9NYK1); experiment: TLR7 inhibition reporter assay (HEK-Blue cells, SEAP reporter, gardiquimod stimulation); conditions: HEK-Blue cells overexpressing human TLR7, SEAP reporter, gardiquimod 7.5 μM
T1 construct: host or cells: HEK-Blue cells (HEK293-derived reporter line)
T1 sequence (Q9NYK1 27-1049): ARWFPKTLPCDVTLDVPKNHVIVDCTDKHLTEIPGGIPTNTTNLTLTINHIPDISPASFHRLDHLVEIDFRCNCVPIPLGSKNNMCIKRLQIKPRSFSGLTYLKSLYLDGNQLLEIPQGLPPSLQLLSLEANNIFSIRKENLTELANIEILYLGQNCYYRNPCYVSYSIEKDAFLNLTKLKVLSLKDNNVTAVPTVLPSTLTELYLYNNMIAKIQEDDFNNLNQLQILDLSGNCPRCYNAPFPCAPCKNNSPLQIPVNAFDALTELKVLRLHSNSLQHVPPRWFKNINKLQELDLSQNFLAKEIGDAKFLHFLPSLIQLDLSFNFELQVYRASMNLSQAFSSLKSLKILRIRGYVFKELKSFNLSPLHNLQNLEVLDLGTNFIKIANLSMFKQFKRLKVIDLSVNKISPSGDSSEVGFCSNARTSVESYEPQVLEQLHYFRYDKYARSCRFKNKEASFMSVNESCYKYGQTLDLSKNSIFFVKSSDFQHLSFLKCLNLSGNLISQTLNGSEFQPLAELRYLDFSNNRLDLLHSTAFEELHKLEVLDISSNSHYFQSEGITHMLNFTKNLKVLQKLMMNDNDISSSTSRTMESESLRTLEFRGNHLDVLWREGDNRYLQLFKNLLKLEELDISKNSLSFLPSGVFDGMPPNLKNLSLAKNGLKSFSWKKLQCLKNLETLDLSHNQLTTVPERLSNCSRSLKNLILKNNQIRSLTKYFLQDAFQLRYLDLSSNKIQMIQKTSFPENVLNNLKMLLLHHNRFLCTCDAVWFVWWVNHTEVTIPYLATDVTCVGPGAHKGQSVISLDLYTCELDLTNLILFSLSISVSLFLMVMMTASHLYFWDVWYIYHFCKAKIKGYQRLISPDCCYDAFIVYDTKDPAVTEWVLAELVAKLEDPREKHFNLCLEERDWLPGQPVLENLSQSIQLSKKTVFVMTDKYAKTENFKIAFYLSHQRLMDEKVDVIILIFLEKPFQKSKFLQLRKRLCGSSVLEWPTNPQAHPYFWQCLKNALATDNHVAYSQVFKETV
How it was run: (§1)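 HEK-Blue cells overexpressing the receptor, with NF-κB/AP-1-driven SEAP, were pre-treated 30 min at room temperature with compound (0.05 nM–50 μM), then stimulated with gardiquimod 7.5 μM (TLR7), R848 15.9 μM (TLR8) or ODN2006 5 nM (TLR9). SEAP was read after 22 h at 37 °C as percent inhibition.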

human TLR8 = target: T2, human TLR8 (Homo sapiens, UniProt Q9NR97); experiment: TLR8 inhibition reporter assay (HEK-Blue cells, SEAP reporter, R848 stimulation); conditions: HEK-Blue cells overexpressing human TLR8, SEAP reporter, R848 15.9 μM
T2 construct: host or cells: HEK-Blue cells (HEK293-derived reporter line)
T2 sequence (Q9NR97 27-1041): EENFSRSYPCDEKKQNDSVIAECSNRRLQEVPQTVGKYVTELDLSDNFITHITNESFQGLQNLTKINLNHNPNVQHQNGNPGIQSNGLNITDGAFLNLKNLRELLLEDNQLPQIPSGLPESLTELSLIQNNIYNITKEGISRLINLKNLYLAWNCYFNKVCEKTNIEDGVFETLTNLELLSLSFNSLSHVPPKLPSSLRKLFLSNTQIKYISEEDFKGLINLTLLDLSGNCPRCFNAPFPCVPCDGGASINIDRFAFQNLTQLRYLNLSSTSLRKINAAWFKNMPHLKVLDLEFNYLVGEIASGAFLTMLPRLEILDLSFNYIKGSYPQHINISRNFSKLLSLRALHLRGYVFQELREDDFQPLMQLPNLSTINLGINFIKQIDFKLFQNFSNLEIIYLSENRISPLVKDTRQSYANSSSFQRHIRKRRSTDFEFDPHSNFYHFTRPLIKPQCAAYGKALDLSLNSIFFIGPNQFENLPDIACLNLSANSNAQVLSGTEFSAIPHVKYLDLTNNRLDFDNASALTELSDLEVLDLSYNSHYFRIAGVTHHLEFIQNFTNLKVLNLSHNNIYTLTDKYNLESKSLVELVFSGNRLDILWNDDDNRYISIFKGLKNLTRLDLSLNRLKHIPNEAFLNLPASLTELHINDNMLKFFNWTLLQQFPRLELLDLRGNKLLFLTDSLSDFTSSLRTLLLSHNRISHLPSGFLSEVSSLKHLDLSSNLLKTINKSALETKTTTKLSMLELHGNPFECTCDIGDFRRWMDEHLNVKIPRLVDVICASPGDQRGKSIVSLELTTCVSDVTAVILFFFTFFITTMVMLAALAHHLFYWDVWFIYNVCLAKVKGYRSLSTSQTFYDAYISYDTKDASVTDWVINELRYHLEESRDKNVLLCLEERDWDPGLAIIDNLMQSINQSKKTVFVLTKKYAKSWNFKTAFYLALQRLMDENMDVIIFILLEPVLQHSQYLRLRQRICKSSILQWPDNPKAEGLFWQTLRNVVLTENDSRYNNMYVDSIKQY
How it was run: as §1

human TLR9 = target: T3, human TLR9 (Homo sapiens, UniProt Q9NR96); experiment: TLR9 inhibition reporter assay (HEK-Blue cells, SEAP reporter, ODN2006 stimulation); conditions: HEK-Blue cells overexpressing human TLR9, SEAP reporter, ODN2006 5 nM
T3 construct: host or cells: HEK-Blue cells (HEK293-derived reporter line)
T3 sequence (Q9NR96 26-1032): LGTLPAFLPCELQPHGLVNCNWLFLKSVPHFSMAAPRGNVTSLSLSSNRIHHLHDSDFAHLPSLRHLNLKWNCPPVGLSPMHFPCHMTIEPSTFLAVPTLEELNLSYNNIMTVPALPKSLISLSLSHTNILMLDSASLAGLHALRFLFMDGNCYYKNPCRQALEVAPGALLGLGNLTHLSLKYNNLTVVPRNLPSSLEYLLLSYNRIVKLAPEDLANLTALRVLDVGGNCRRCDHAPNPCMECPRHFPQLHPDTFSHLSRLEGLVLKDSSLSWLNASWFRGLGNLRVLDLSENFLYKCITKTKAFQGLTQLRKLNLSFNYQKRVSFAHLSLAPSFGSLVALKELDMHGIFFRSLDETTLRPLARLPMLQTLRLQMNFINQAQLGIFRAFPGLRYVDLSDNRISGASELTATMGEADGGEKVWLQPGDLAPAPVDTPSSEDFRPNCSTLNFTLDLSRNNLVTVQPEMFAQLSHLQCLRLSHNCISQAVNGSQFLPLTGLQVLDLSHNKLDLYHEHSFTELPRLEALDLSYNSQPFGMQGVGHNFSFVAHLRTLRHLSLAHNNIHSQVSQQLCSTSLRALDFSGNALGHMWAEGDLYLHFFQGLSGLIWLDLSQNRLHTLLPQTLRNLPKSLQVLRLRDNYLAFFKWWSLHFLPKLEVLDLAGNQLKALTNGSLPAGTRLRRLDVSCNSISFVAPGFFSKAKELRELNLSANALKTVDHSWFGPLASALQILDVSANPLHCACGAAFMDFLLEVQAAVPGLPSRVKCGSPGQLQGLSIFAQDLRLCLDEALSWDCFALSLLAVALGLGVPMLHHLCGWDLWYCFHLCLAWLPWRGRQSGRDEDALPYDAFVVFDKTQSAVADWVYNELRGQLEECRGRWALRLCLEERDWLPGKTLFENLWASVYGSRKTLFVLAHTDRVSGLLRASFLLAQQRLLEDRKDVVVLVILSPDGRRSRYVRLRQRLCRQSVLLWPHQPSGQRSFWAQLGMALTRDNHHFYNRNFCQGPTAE
How it was run: as §1

SMILES | IC50 (human TLR7) [nM] | IC50 (human TLR8) [nM] | IC50 (human TLR9) [nM]
Fc1cc(-c2[nH]c3ccc(C4CCNCC4)cc3c2CC(F)F)cn2ccnc12 [Example 131, 6-(3-(2,2-difluoroethyl)-5-(piperidin-4-yl)-1H-indol-2-yl)-8-fluoroimidazo[1,2-a] pyridine] | < 100 | 100 to 1000 | 100 to 1000
Cc1cn2cc(-c3[nH]c4ccc(C5CCN(CC(=O)N(C)C)CC5)cc4c3CC(F)F)ccc2n1 [Example 416, 2-(4-(3-(2,2-difluoroethyl)-2-(2-methylimidazo[1,2-a]pyridin-6-yl)-1H-indol-5-yl)piperidin-1-yl)-N,N-dimethylacetamide] | < 100 | > 3130 | < 100
CCc1c(-c2cnc3ncnn3c2)[nH]c2ccc(C3CCNCC3)cc12 [Example 26, 6-(3-ethyl-5-(piperidin-4-yl)-1H-indol-2-yl)-[1,2,4]triazolo[1,5-a]pyrimidine] | 100 to 1000 | 100 to 1000 | 100 to 1000
CNC(=O)CN1CCC(c2ccc3[nH]c(-c4cc(C)n5nccc5c4)c(C(C)C)c3c2)CC1 [Example 443, 2-(4-(3-isopropyl-2-(7-methylpyrazolo[1,5-a]pyridin-5-yl)-1H-indol-5-yl)piperidin-1-yl)-N-methylacetamide] | < 100 | < 100 | 1000 to 50000
Cc1ccnc2[nH]cc(-c3[nH]c4ccc(C5CCN(C6CCOCC6)CC5)cc4c3C(C)C)c12 [Example 690, 3-(3-isopropyl-5-(1-(tetrahydro-2H-pyran-4-yl)piperidin-4-yl)-1H-indol-2-yl)-4-methyl-1H-pyrrolo[2,3-b]pyridine] | < 100 | < 100 | 1000 to 50000
Cc1cc(-c2[nH]c3ccc(C4CCN(C(=O)CCN5CCCC5)CC4)cc3c2C(C)C)cn2nnnc12 [Example 618, 1-(4-(3-isopropyl-2-(8-methyltetrazolo[1,5-a]pyridin-6-yl)-1H-indol-5-yl)piperidin-1-yl)-3-(pyrrolidin-1-yl)propan-1-one] | < 100 | < 100 | 100 to 1000
CC(C)c1c(-c2c[nH]c3ncncc23)[nH]c2ccc(C3CCNCC3)cc12 [Example 13, 5-(3-isopropyl-5-(piperidin-4-yl)-1H-indol-2-yl)-7H-pyrrolo[2,3-d]pyrimidine] | < 100 | < 100 | 100 to 1000
Cc1cc(-c2[nH]c3ccc(C4CCN(C(=O)CCN5CCC(F)CC5)CC4)cc3c2C(C)C)cn2nnnc12 [Example 633, 3-(4-fluoropiperidin-1-yl)-1-(4-(3-isopropyl-2-(8-methyltetrazolo[1,5-a]pyridin-6-yl)-1H-ndol-5-yl)piperidin-1-yl)propan-1-one] | < 100 | < 100 | 1000 to 50000
CC(C)c1c(-c2ccn3nncc3c2)[nH]c2ccc(C3CCN(C4COC4)CC3)cc12 [Example 735, 5-(3-isopropyl-5-(1-(oxetan-3-yl)piperidin-4-yl)-1H-indol-2-yl)-[1,2,3]triazolo[1,5-a]pyridine] | < 100 | 100 to 1000 | 1000 to 50000
Cc1cc(-c2[nH]c3ccc(C4CCN(CCCS(C)(=O)=O)CC4)cc3c2C(C)C)cn2nnnc12 [Example 787, 6-(3-isopropyl-5-(1-(3-(methylsulfonyl)propyl)piperidin-4-yl)-1H-indol-2-yl)-8-methyltetrazolo[1,5-a]pyridine] | < 100 | < 100 | 1000 to 50000
CCc1c(-c2cnc3cnccn23)[nH]c2ccc(C3CCNCC3)cc12 [Example 28, 3-(3-ethyl-5-(piperidin-4-yl)-1H-indol-2-yl)imidazo[1,2-a]pyrazine] | 1000 to 50000 | 1000 to 50000 | 100 to 1000
Cc1cc(-c2[nH]c3ccc(C4CCN(C(=O)CCN5CC6(COC6)C5)CC4)cc3c2C(C)C)cn2nnnc12 [Example 631, 1-(4-(3-isopropyl-2-(8-methyltetrazolo[1,5-a]pyridin-6-yl)-1H-indol-5-yl)piperidin-1-yl)-3-(2-oxa-6-azaspiro[3.3]heptan-6-yl)propan-1-one] | < 100 | < 100 | 100 to 1000
CC(C)c1c(-c2ccnc3[nH]ncc23)[nH]c2ccc(C3CCNCC3)cc12 [Example 230, 4-(3-isopropyl-5-(piperidin-4-yl)-1H-indol-2-yl)-1H-pyrazolo[3,4-b]pyridine] | < 100 | < 100 | 100 to 1000
CCc1c(-c2ccnc3[nH]ncc23)[nH]c2ccc(C3CCN(Cc4nc(C)oc4C)CC3)cc12 [Example 898, 4-((4-(3-ethyl-2-(1H-pyrazolo[3,4-b]pyridin-4-yl)-1H-indol-5-yl)piperidin-1-yl)methyl)-2,5-dimethyloxazole] | 100 to 1000 | < 100 | 1000 to 50000
